Test results from patent publication US8822449B2, “Substituted aminoindanes and analogs thereof, and the pharmaceutical use thereof” (Sanofi, priority 2008, dated 2014).
pIC50: −log10 of the molar value. Where two headings read alike, the source gives them in different places.

Target: T1, sodium-proton exchanger of subtype 3 (NHE3) (Homo sapiens, UniProt P48764)
T1 construct: expressed in transfected cells
T1 sequence (P48764 26-834): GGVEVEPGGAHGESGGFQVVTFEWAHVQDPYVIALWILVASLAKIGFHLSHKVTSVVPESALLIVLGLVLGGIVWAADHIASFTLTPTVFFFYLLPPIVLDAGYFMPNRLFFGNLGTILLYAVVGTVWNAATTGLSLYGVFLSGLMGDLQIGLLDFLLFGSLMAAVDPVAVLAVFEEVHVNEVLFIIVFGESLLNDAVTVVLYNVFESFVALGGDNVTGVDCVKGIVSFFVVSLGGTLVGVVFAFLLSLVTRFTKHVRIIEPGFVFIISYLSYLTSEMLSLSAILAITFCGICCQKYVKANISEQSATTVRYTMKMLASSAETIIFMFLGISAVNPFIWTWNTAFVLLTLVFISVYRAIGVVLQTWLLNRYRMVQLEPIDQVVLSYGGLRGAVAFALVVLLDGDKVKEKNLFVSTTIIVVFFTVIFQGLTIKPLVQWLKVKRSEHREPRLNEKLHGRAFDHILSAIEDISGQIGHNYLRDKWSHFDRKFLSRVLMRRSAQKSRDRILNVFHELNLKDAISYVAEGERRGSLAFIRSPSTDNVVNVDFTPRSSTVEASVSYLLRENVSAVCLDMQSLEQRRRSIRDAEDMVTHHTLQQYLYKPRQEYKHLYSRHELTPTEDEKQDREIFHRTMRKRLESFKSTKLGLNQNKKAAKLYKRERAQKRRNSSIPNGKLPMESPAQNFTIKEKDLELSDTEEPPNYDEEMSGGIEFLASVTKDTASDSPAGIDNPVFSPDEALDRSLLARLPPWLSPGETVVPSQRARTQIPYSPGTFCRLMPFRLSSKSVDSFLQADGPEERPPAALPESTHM
Test: Recovery of intracellular pH (pHi) after acidification in LAP1 cells stably expressing NHE3 (BCECF fluorescence, FLIPR)
Type: cell-based
Details: LAP1 cells stably expressing NHE3, pH recovery after acidification, range 1 is % inhibition at 10 μM

[1] = read-out: Activity range (inhibitory effect on NHE3)

| pIC50 [1] | SMILES | also measured |
| --- | --- | --- |
| 5.00 to 6.00 | CCOc1cccc(O[C@@H]2c3ccccc3C[C@H]2N2CCC(CN)CC2)c1 (racemic) [Example 614, C-{1-[rac-trans-(1,2)-1-(3-ethoxyphenoxy)indan-2-yl]piperidin-4-yl}methylamine] | – |
| > 6.00 | CC(=O)Nc1cccc(O[C@H]2c3ccccc3C[C@@H]2N2CCCC2)n1 (racemic) [Example 668, N-[6-(rac-trans-(1,2)-2-pyrrolidin-1-ylindan-1-yloxy)-pyridin-2-yl]acetamide] | – |
| – | N[C@@H]1CCCN([C@H]2CCc3ccccc3[C@@H]2Oc2ccc(NC(=O)OCc3ccccc3)cc2)C1 (racemic) [Example 237, {4-[rac-trans-(1,2)-2-((R)-3-aminopiperidin-1-yl)-1,2,3,4-tetrahydronaphthalen-1-yloxy]phenyl}carbamic acid benzyl ester] | inhibition at 10 µM [1]: 20 to 50% |
| 5.00 to 6.00 | Cn1ccn(-c2ccc(F)c(O[C@H]3c4cc(F)cc(F)c4C[C@@H]3N3CC[C@@H](O)C3)c2)c1=O [Example 317, 1-{3-[(1S,2S)-4,6-difluoro-2-((R)-3-hydroxypyrrolidin-1-yl)indan-1-yloxy]-4-fluorophenyl}-3-methyl-1,3-dihydroimidazol-2-one] | – |
| 5.00 to 6.00 | O=C1CCC(=O)N1c1ccc(Cl)c(O[C@H]2c3cc(Cl)cc(Cl)c3C[C@@H]2N2CC[C@@H](O)C2)c1 [Example 337, 1-{4-chloro-3-[(1S,2S)-4,6-dichloro-2-((R)-3-hydroxypyrrolidin-1-yl)indan-1-yloxy]phenyl}pyrrolidine-2,5-dione] | – |
| – | CN(C)Cc1ccc(O[C@H]2c3ccccc3CC[C@@H]2N2CCC[C@@H](N)C2)cc1 (racemic) [Example 67, (R)-1-[rac-trans-(1,2)-1-(4-dimethylaminomethylphenoxy)-1,2,3,4-tetrahydronaphthalen-2-yl]piperidin-3-ylamine] | inhibition at 10 µM [1]: 20 to 50% |
| > 6.00 | CN1CCCN([C@H]2Cc3c(Cl)cc(Cl)cc3[C@@H]2Oc2ccc(S(C)(=O)=O)cc2)CC1 (racemic) [Example 279, 1-[rac-trans-(1,2)-4,6-dichloro-1-(4-methanesulfonylphenoxy)indan-2-yl]-4-methyl-[1,4]diazepane] | – |
| – | O=C1CCCN1c1cccc(O[C@H]2c3ccccc3C[C@@H]2N2CCCC2)c1 (racemic) [Example 255, 1-[3-(rac-trans-(1,2)-2-pyrrolidin-1-ylindan-1-yloxy)phenyl]pyrrolidin-2-one] | pIC50 (Activity range (inhibitory effect on NHE3)): 5.00 to 6.00 |
| 5.00 to 6.00 | N[C@@H]1CCCN([C@H]2CCc3ccccc3[C@@H]2Oc2cccc3ccc(Cl)nc23)C1 (racemic) [Example 41, (R)-1-[rac-trans-(1,2)-1-(2-chloroquinolin-8-yloxy)-1,2,3,4-tetrahydronaphthalen-2-yl]piperidin-3-ylamine] | – |
| > 6.00 | CC(=O)Nc1cccc(O[C@H]2c3cc(Cl)cc(Cl)c3C[C@@H]2N2CC3CNCC3C2)c1 (mixture of isomers) [Example 689, N-{3-[rac-trans-(1,2)-4,6-dichloro-2-(hexahydropyrrolo[3,4-c]pyrrol-2-yl)indan-1-yloxy]phenyl}acetamide] | – |
| 5.00 to 6.00 | CCc1nc(C)cn1-c1ccc(O[C@H]2c3cc(Cl)cc(Cl)c3C[C@@H]2N2CC[C@@H](O)C2)cc1 [Example 712, (R)-1-{trans-(1S,2S)-4,6-Dichloro-1-[4-(2-ethyl-4-methyl-imidazol-1-yl)-phenoxy]-indan-2-yl}-pyrrolidin-3-ol] | – |
| – | CC(=O)Nc1cccc(O[C@H]2c3c(Cl)cc(Cl)cc3C[C@@H]2N(C)C)c1 (racemic) [Example 654, N-[3-(rac-trans-(1,2)-5,7-dichloro-2-dimethylaminoindan-1-yloxy)phenyl]acetamide] | inhibition at 10 µM [1]: 20 to 50% |
| – | COc1cccc(CC#N)c1O[C@H]1c2ccccc2CC[C@@H]1N1CCOCC1 (racemic) [Example 213, [3-methoxy-2-(rac-trans-(1,2)-2-morpholin-4-yl-1,2,3,4-tetrahydronaphthalen-1-yloxy)phenyl]acetonitrile] | inhibition at 10 µM [1]: 20 to 50% |
| 5.00 to 6.00 | O=C1CNC(=O)N1c1ccc(F)c(O[C@H]2c3cc(Cl)cc(Cl)c3C[C@@H]2N2CC[C@@H](O)C2)c1 [Example 417, 3-{3-[(1S,2S)-4,6-dichloro-2-((R)-3-hydroxypyrrolidin-1-yl)indan-1-yloxy]-4-fluorophenyl}imidazolidine-2,4-dione] | – |
| 5.00 to 6.00 | CC1(C)NC(=O)N(c2ccc(Cl)c(O[C@H]3c4cc(Cl)cc(F)c4C[C@@H]3N3CC[C@@H](O)C3)c2)C1=O [Example 436, 3-{4-chloro-3-[(1S,2S)-6-chloro-4-fluoro-2-((R)-3-hydroxypyrrolidin-1-yl)indan-1-yloxy]phenyl}-5,5-dimethylimidazolidine-2,4-dione] | – |
| 5.00 to 6.00 | COc1ccc(C)cc1O[C@@H]1c2ccccc2C[C@H]1N1CCC(CN)CC1 (racemic) [Example 606, C-{1-[rac-trans-(1,2)-1-(2-methoxy-5-methylphenoxy)indan-2-yl]piperidin-4-yl}methylamine] | – |
| 5.00 to 6.00 | NCC1CCN([C@@H]2Cc3ccccc3[C@H]2Oc2ccc(Br)cc2-c2cc[nH]n2)C1 (mixture of isomers) [Example 600, C-(1-{rac-trans-(1,2)-1-[4-bromo-2-(1H-pyrazol-3-yl)phenoxy]indan-2-yl}pyrrolidin-3-yl)methylamine] | – |
| 5.00 to 6.00 | CS(=O)(=O)c1ccc(N[C@H]2c3cc(Cl)cc(Cl)c3C[C@@H]2N2CC[C@@H](O)C2)cc1 [Example 26, (R)-1-[(1S,2S)-4,6-dichloro-1-(4-methanesulfonylphenylamino)indan-2-yl]pyrrolidin-3-ol] | – |
| 5.00 to 6.00 | N[C@@H]1CCCN([C@@H]2Cc3ccccc3[C@H]2Oc2ccc(Cl)nc2)C1 (racemic) [Example 82, (R)-1-[rac-trans-(1,2)-1-(6-chloropyridin-3-yloxy)indan-2-yl]piperidin-3-ylamine] | – |
| – | NS(=O)(=O)c1ccc(O[C@H]2c3ccccc3C[C@@H]2CN2CCCCC2)c(F)c1 (racemic) [Example 450, 3-fluoro-4-(2-piperidin-1-ylmethylindan-1-yloxy)benzenesulfonamide] | inhibition at 10 µM [1]: 20 to 50% |
| 5.00 to 6.00 | CS(=O)(=O)c1ccc(O[C@H]2c3ccccc3C[C@@H]2CN2CCCC2)cc1 (racemic) [Example 274, 1-[rac-trans-(1,2)-1-(4-methanesulfonylphenoxy)indan-2-ylmethyl]pyrrolidine] | – |
| 5.00 to 6.00 | Cc1cc(O[C@H]2c3cc(Cl)cc(F)c3C[C@@H]2N2CCCC2)ccc1S(C)(=O)=O (racemic) [Example 291, 1-[rac-trans-(1,2)-6-chloro-4-fluoro-1-(4-methanesulfonyl-3-methylphenoxy)indan-2-yl]pyrrolidine] | – |
| > 6.00 | O=C1OCCN1c1cccc(O[C@H]2c3ccccc3C[C@@H]2N2CCCC2)c1 (racemic) [Example 409, 3-[3-(rac-trans-(1,2)-2-pyrrolidin-1-ylindan-1-yloxy)phenyl]oxazolidin-2-one] | – |
| 5.00 to 6.00 | NS(=O)(=O)c1ccc(OC2c3ccccc3CC2N2CC[C@@H](N3CCCC3)C2)cc1 (mixture of isomers) [Example 463, 4-(rac-trans-(1,2)-(R)-2-[1,3′]Bipyrrolidinyl-1′-ylindan-1-yloxy)benzenesulfonamide] | – |
| 5.00 to 6.00 | CS(=O)(=O)c1ccc(O[C@H]2c3cc(Cl)cc(Cl)c3C[C@@H]2N2CC[C@@H](C#N)C2)cc1 [Example 105, (R)-1-[trans-(1S,2S)-4,6-dichloro-1-(4-methanesulfonylphenoxy)indan-2-yl]pyrrolidine-3-carbonitrile] | – |
| > 6.00 | Cc1nnc(C)n1-c1ccc(O[C@H]2c3cc(Cl)cc(Cl)c3C[C@@H]2N(C)CCO)c(F)c1 [Example 704, 2-({trans-(1S,2S)-4,6-Dichloro-1-[4-(3,5-dimethyl-[1,2,4]triazol-4-yl)-2-fluoro-phenoxy]-indan-2-yl}-methyl-amino)-ethanol] | – |
| > 6.00 | Cc1nnc(C)n1-c1ccc(O[C@H]2c3ccccc3C[C@@H]2N2CCCC2)c(C(F)(F)F)c1 [Example 406, 3,5-dimethyl-4-[4-(trans-(1S,2S)-2-pyrrolidin-1-ylindan-1-yloxy)-3-trifluoromethylphenyl]-4H-[1,2,4]triazole] | – |
| > 6.00 | CS(=O)(=O)c1ccc(O[C@H]2c3c(ccc(Cl)c3Cl)C[C@@H]2N2CCCNCC2)cc1 (racemic) [Example 288, 1-[rac-trans-(1,2)-6,7-dichloro-1-(4-methanesulfonylphenoxy)indan-2-yl]-[1,4]diazepane] | – |
| 5.00 to 6.00 | CC(=O)Nc1cccc(O[C@H]2c3cccc(C)c3C[C@@H]2N2CCCC2)c1 (racemic) [Example 653, N-[3-(rac-trans-(1,2)-4-methyl-2-pyrrolidin-1-ylindan-1-yloxy)phenyl]acetamide] | – |
| 5.00 to 6.00 | NC(=O)Cc1c[nH]c2ccc(O[C@@H]3c4ccccc4C[C@H]3N3CCC(N)C3)cc12 (mixture of isomers) [Example 387, 2-{5-[rac-trans-(1,2)-2-(3-aminopyrrolidin-1-yl)indan-1-yloxy]-1H-indol-3-yl}acetamide] | – |
